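Values below derive from 48-hour exposures of cells grown in 96-well plates, with endpoints linearly interpolated between the two concentrations bracketing the appropriate inhibition level. TGI is the concentration that stops growth completely.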
Tests used:
Assay in all cases: NCI-60 cell line screen, 48 h
[1] = system: A498 renal
[2] = system: ACHN renal
[3] = system: HCT-116 colon
[4] = system: SNB-19 CNS
[5] = system: SR leukemia
[6] = system: SW-620 colon
[7] = system: UACC-62 melanoma

Row | SMILES | TGI [1] | TGI [2] | TGI [3] | TGI [4] | TGI [5] | TGI [6] | TGI [7]
1 | CCc1cccc(C)c1NC(=O)C(=O)Cc1nc2ccccc2s1 | > 100 µM | > 100 µM | > 100 µM | > 100 µM | > 100 µM | > 100 µM | > 100 µM
2 | COc1ccc(OC)c(NC(=O)CCC/C(CC(=O)c2ccc(O)c(OC)c2)=N\Nc2ccc([N+](=O)[O-])cc2)c1 | > 100 µM | > 100 µM | > 100 µM | > 100 µM | > 100 µM | > 100 µM | > 100 µM
3 | O=S1(=O)OCCOS(=O)(=O)C1Cc1ccccc1 | > 100 µM | > 100 µM | > 100 µM | > 100 µM | > 100 µM | > 100 µM | > 100 µM
4 | Cc1ccc(Nc2nc(C)c(C(/C=C/c3ccc(/C=C/C(=N/NC(=O)C[n+]4ccccc4)c4sc(Nc5ccc(C)cc5[N+](=O)[O-])nc4C)cc3)=N\NC(=O)C[n+]3ccccc3)s2)c([N+](=O)[O-])c1 |  | > 100 µM | > 100 µM | > 100 µM | > 100 µM | > 100 µM | 67 µM
5 | CN(C(=O)c1ccco1)C(=S)N1CCN(c2ccccc2)CC1 |  | > 100 µM | > 100 µM | > 100 µM | > 100 µM | > 100 µM | > 100 µM
6 | O=C1CC(S(=O)(=O)O)C=C1Nc1cccc(Cl)c1 (configuration not stated) | > 100 µM | > 100 µM | > 100 µM | > 100 µM | > 100 µM | > 100 µM | > 100 µM
7 | N#CC(c1nc2ccccc2nc1Cl)S(=O)(=O)c1ccccc1 (configuration not stated) | > 100 µM | > 100 µM | > 100 µM | > 100 µM | > 100 µM | > 100 µM | > 100 µM
8 | COC(=O)C1=C(c2cc(OC)c(OC)c(OC)c2)OC(c2ccc(OC)c(OC)c2)C1 (configuration not stated) | 69.3 µM | > 100 µM | > 100 µM |  | > 100 µM | 87 µM | > 100 µM
9 | C/C(CC(=O)Nc1ccc(Cl)cc1)=N\NC(N)=S | > 100 µM | > 100 µM | > 100 µM |  |  | > 100 µM | > 100 µM
10 | COc1cc(C2C(Cl)C(=O)N2NC(=O)c2ccc(N)cc2)ccc1O (configuration not stated) | > 100 µM | > 100 µM | 47.9 µM | 78.9 µM |  | 35.2 µM | > 100 µM
11 | Cc1cc(Cl)ccc1NC(=O)CC/C(CC(=O)C(C)C)=N\NC(=O)C[n+]1ccccc1 | > 100 µM | > 100 µM | > 100 µM | > 100 µM | > 100 µM | > 100 µM | > 100 µM
12 | CCOC(=O)NC(=O)c1cn(CCN2CCN(c3ncnc4nc[nH]c34)CC2)c(=O)[nH]c1=O | > 100 µM | > 100 µM | > 100 µM | > 100 µM | > 100 µM | > 100 µM | > 100 µM
13 | [N-]=[N+]=NC(CI)c1cn([C@H]2C[C@H](O)[C@@H](CO)O2)c(=O)[nH]c1=O (some centres not stated) |  | > 100 µM | > 100 µM | > 100 µM | > 100 µM | > 100 µM | > 100 µM
14 | Cc1ccccc1NC(=O)C(=O)CC(=O)c1c(C)n([O-])c2ccccc2[n+]1=O | > 100 µM | > 100 µM | > 100 µM | > 100 µM | 0.0875 µM | > 100 µM | > 100 µM
15 | CN1c2ccccc2N(C)C23N(C)c4ccccc4N(C)C12N(C)c1ccccc1N3C (configuration not stated) | > 100 µM | > 100 µM | > 100 µM | > 100 µM |  | > 100 µM | > 100 µM
16 | CC(=O)C1C(=O)C(=O)N(c2ccccc2C(C)C)C1=O (configuration not stated) | > 100 µM | > 100 µM | > 100 µM | > 100 µM |  | > 100 µM | > 100 µM
17 | C[Si](C)(C)c1ccc(-c2sc(-c3ccc([Si](C)(C)C)s3)c3c2C[Si]2(C3)Cc3c(-c4ccc([Si](C)(C)C)s4)sc(-c4ccc([Si](C)(C)C)s4)c3C2)s1 |  | > 100 µM | > 100 µM | > 100 µM | > 100 µM | > 100 µM | > 100 µM
18 | CCOC(=O)NC(=O)c1cn(CCCCCCOC(=O)NCCCCCCNC(=O)OCCCCCCn2cc(C(=O)NC(=O)OCC)c(=O)[nH]c2=O)c(=O)[nH]c1=O | > 100 µM | > 100 µM | > 100 µM | > 100 µM |  | > 100 µM | > 100 µM
19 | COC(=O)c1cc(Cl)ccc1NC(=O)c1ccc([N+](=O)[O-])cc1 | 34.5 µM | 26.5 µM | 17.9 µM |  |  | > 100 µM | 66.5 µM
20 | O=CN/C=C/c1ccc(O)c(O)c1 | > 100 µM | > 100 µM | > 100 µM | > 100 µM |  | > 100 µM | > 100 µM
21 | C[C@]12CCC3[C@@H](CC[C@@H]4c5nonc5CC[C@]34C)C1C/C(=N/O)C2=O (some centres not stated) | > 100 µM | > 100 µM | > 100 µM | > 100 µM |  | > 100 µM | > 100 µM
22 | CN(/N=C/c1cccc2cccnc12)c1ccccc1 | > 100 µM | > 100 µM |  | > 100 µM |  | > 100 µM | > 100 µM

Reference: PubChem BioAssay (NCI)
